Measured values: US7705029B2 (Synta Pharmaceuticals Corp., priority 2004, dated 2010)

What follows are compounds tested on IL-2 production in a Human Jurkat Cell Line (assay: Inhibition of IL-2 production in PHA-stimulated Jurkat cells (IL-2 ELISA)). Conditions: Homo sapiens, Jurkat, 20 h, read-out: IC50 (concentration at which IL-2 release is inhibited by 50%).
Format: cell-based
Procedure: Jurkat cells (ATCC, Cat# TIB-152) were grown in RPMI1640 medium (ATCC, Cat# 30-2001) containing 10% of FBS (ATCC, Cat# 30-2020). For compound screening, Jurkat cells were plated in 96-well plates at a density of 0.5 million cells per well in RPMI1640 medium containing 1% of FBS. Then, various concentrations of each test compound were added to the cell plates followed by addition of PHA (Sigma, Cat# L-9017) at a final concentration of 2.5 μg/ml to stimulate IL-2 production. Cells were then incubated at 37° C. (+5% CO2) for 20 hours before ELISA assay. After 20 hours incubation, cell plates were centrifuged at 500-800 g for 5 minutes and the supernatants was collected for IL-2 detection using the human IL-2 ELISA kit purchased from Cell Sciences (Cat# 851.500.020). The ELISA assay for IL-2 production was done in 96-well plates using a protocol provided by Cell Sciences.
The IC50 (i.e., the concentration at which IL-2 release is inhibited by 50%) was determined and the results are shown in the Table. […] The designation “A” means an IC50 less than 0.010 μM; the designation B means an IC50 between 0.010 and 1.0 μM; and the designation “C” mean an IC50 greater than 1 μM.
With `N#CC(=Cc1ccc(-n2ccc(-c3cccs3)n2)cc1)C(=O)c1ccccc1` [Compound 28, 2-Benzoyl-3-[4-(3-thiophen-2-yl-pyrazol-1-yl)-phenyl]-acrylonitrile] the IC50 was over 1000 nM.
With `N#CC(=Cc1ccc(-n2nc(C(F)(F)F)cc2C(F)(F)F)cc1)c1cc(F)c(F)c(F)c1` [Compound 10, 3-[4-(3,5-Bis-trifluoromethyl-pyrazol-1-yl)-phenyl]-2-(3,4,5-trifluoro-phenyl)-acrylonitrile] the IC50 was 10 to 1000 nM.
With `N#C/C(=C\c1ccc(-n2nc(C(F)(F)F)cc2OC(F)F)cc1)c1cccc(F)c1F` [Compound 1] the IC50 was 10 to 1000 nM.
`N#CC(=Cc1cccc(-n2nc(C(F)(F)F)cc2C(F)(F)F)c1)c1cccc(F)c1F` [Compound 43, 3-[3-(3,5-Bis-trifluoromethyl-pyrazol-1-yl)-phenyl]-2-(2,3-difluoro-phenyl)-acrylonitrile] showed an IC50 of over 1000 nM.
In the case of `Cc1cc(C(F)(F)F)n(-c2ccc(C=C(C#N)c3cccc(F)c3F)cc2)n1` [Compound 18, 2-(2,3-Difluoro-phenyl)-3-[4-(3-methyl-5-trifluoromethyl-pyrazol-1-yl)-phenyl]-acrylonitrile], the IC50 is reported as 10 to 1000 nM.
`N#CC(=Cc1ccc(-n2ccc(-c3ccccc3)n2)cc1)C(=O)c1ccco1` [Compound 31, 2-(Furan-2-carbonyl)-3-[4-(3-phenyl-pyrazol-1-yl)-phenyl]-acrylonitrile] was tested, and the IC50 was over 1000 nM.
Compound `N#CC(=Cc1ccc(-n2nc(C(F)(F)F)cc2C(F)(F)F)cc1)c1ccccc1F` [Compound 6, 3-[4-(3,5-Bis-trifluoromethyl-pyrazol-1-yl)-phenyl]-2-(2-fluoro-phenyl)-acrylonitrile] has an IC50 of 10 to 1000 nM.
Compound `N#CC(=Cc1ccc(-n2c(C(F)(F)F)nc3ccccc32)cc1)c1cc(F)ccc1F` [Compound 46, 2-(2,5-Difluoro-phenyl)-3-[4-(2-trifluoromethyl-benzoimidazol-1-yl)-phenyl]-acrylonitrile] has an IC50 of 10 to 1000 nM.
`N#CC(=Cc1ccc(-n2nc(C(F)(F)F)cc2C(F)(F)F)cc1)c1ccc(F)c(F)c1F` [Compound 8, 3-[4-(3,5-Bis-trifluoromethyl-pyrazol-1-yl)-phenyl]-2-(2,3,4-trifluoro-phenyl)-acrylonitrile] was tested, and the IC50 was 10 to 1000 nM.
`N#CC(=Cc1ccc(-n2c(C(F)(F)F)nc3ccccc32)cc1)c1cccc(F)c1F` [Compound 45, 2-(2,3-Difluoro-phenyl)-3-[4-(2-trifluoromethyl-benzoimidazol-1-yl)-phenyl]-acrylonitrile] was tested, and the IC50 was 10 to 1000 nM.

Same assay, conditions: Jurkat cells, PHA 2.5 μg/ml, 20 hours incubation, human IL-2 ELISA of supernatant; read-out: IC50 (concentration at which IL-2 release is inhibited by 50%)
In the case of `N#CC(=Cc1ccccc1-n1nc(C(F)(F)F)cc1C(F)(F)F)c1cccc(F)c1F` [Compound 14, 3-[2-(3,5-Bis-trifluoromethyl-pyrazol-1-yl)-phenyl]-2-(2,3-difluoro-phenyl)-acrylonitrile], the IC50 is reported as over 1000 nM.
